Experiments:
human CXCR3A = human CXCR3A (Homo sapiens (Human), UniProt P49682); experiment: FLIPR assay; type: cell-based; conditions: CHO-K1 cells expressing the human CXCR3A coupled to Galpha(16); CXCL10 agonist 20 nM; Fluo-4-AM fluorescence; mean values if determined several times
Procedure, shortened: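 CHO-K1 cells expressing CXCR3A coupled to Gα16 were loaded with Fluo-4-AM for 1 h in Hepes-buffered HBSS, pH 7.4, with 5 mM probenecid. Compound dilutions were added on the FLIPR, followed by CXCL10 (added as a 20 nM solution). Baseline-subtracted peak fluorescence was fitted to a single-site curve for IC50.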

CXCR3 = CXCR3 (Homo sapiens (Human), UniProt P49682); experiment: Receptor internalization assay; type: cell-based; conditions: human whole blood; final CXCL10 concentration 9 nM; 30 min 37° C.; CXCR3 cell surface expression on CD3 positive cells, flow cytometer; read-out: Internalization IC50
Procedure, shortened: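 In human whole blood, compounds were incubated with CXCL10 (9 nM final) for 30 min at 37 °C to drive receptor internalization, then stained with anti-CXCR3/CD3 antibodies and lysed of red cells. Flow cytometry measured mean surface CXCR3 fluorescence on CD3+ cells, and IC50 came from single-site dose-response fits.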

human CXCR3A, sequence (P49682 whole entry): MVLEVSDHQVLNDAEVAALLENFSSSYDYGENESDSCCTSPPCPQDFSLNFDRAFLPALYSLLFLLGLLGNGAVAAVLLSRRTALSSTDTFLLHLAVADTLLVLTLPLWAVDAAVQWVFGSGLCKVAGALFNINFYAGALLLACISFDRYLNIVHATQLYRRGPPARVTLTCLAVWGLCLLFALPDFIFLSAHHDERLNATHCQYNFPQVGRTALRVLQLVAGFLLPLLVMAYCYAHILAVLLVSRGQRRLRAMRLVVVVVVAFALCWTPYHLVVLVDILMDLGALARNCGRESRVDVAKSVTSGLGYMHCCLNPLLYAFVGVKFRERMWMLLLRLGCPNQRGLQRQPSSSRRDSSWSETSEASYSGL
CXCR3, sequence (P49682 whole entry): as above

Row | IC50 (human CXCR3A) [nM] | IC50 (CXCR3) [nM] | SMILES
1 | 0.3 | 1110 | C[C@@H]1CN(c2scnc2-c2nc3ccccc3[nH]2)CCN1C(=O)CN1C(=O)C(F)(F)c2ccccc21 [Example 187, 1-(2-{(R)-4-[4-(1H-Benzoimidazol-2-yl)-thiazol-5-yl]-2-methyl-piperazin-1-yl}-2-oxo-ethyl)-3,3-difluoro-1,3-dihydro-indol-2-one]
2 | 16 | 1970 | O=C(Cn1ncc2ccccc21)N1CCN(c2scnc2-c2nc3ccccc3[nH]2)CC1 [Example 109, 1-{4-[4-(1H-Benzoimidazol-2-yl)-thiazol-5-yl]-piperazin-1-yl}-2-indazol-1-yl-ethanone]
3 | 1 | 205 | Cc1cc2[nH]c(-c3ncsc3N3CCN(C(=O)Cn4cnc5cccnc54)[C@H](C)C3)nc2cc1Cl [Example 87, 1-{(R)-4-[4-(5-Chloro-6-methyl-1H-benzoimidazol-2-yl)-thiazol-5-yl]-2-methyl-piperazin-1-yl}-2-imidazo[4,5-b]pyridin-3-yl-ethanone]
4 | 0.2 | 181 | C[C@@H]1CN(c2scnc2-c2nc3ccc(Cl)cc3[nH]2)CCN1C(=O)Cn1ccc2cccnc21 [Example 23, 1-{(R)-4-[4-(6-Chloro-1H-benzoimidazol-2-yl)-thiazol-5-yl]-2-methyl-piperazin-1-yl}-2-pyrrolo[2,3-b]pyridin-1-yl-ethanone]
5 | 2 | 566 | COc1cccc2nc(-c3ncsc3N3CCN(C(=O)Cn4c(=O)n(C)c5ccccc54)CC3)[nH]c12 [Example 30, 1-(2-{4-[4-(7-Methoxy-1H-benzoimidazol-2-yl)-thiazol-5-yl]-piperazin-1-yl}-2-oxo-ethyl)-3-methyl-1,3-dihydro-benzoimidazol-2-one]
6 | 1 | 215 | C[C@@H]1CN(c2scnc2-c2nc3ccc(C(C)(C)C)cc3[nH]2)CCN1C(=O)Cn1ccc2cccnc21 [Example 24, 1-{(R)-4-[4-(6-tert-Butyl-1H-benzoimidazol-2-yl)-thiazol-5-yl]-2-methyl-piperazin-1-yl}-2-pyrrolo[2,3-b]pyridin-1-yl-ethanone]
7 | 3 | 2670 | C[C@@H]1CN(c2scnc2-c2nc3ccccc3[nH]2)CCN1C(=O)Cc1noc2ccccc12 [Example 130, 2-Benzo[d]isoxazol-3-yl-1-{(R)-4-[4-(1H-benzoimidazol-2-yl)-thiazol-5-yl]-2-methyl-piperazin-1-yl}-ethanone]
8 | 11 | 3120 | O=C(CN1C(=O)COc2ccccc21)N1CCN(c2scnc2-c2nc3ccccc3[nH]2)CC1 [Example 78, 4-(2-{4-[4-(1H-Benzoimidazol-2-yl)-thiazol-5-yl]-piperazin-1-yl}-2-oxo-ethyl)-4H-benzo[1,4]oxazin-3-one]
9 | 2 | 111 | C[C@@H]1CN(c2sc(C(F)(F)F)nc2-c2nc3ccccc3[nH]2)CCN1C(=O)CN1C(=O)C(F)(F)c2ccccc21 [Example 205, 1-(2-{(R)-4-[4-(1H-Benzoimidazol-2-yl)-2-trifluoromethyl-thiazol-5-yl]-2-methyl-piperazin-1-yl}-2-oxo-ethyl)-3,3-difluoro-1,3-dihydro-indol-2-one]
10 | 1 | 568 | Cc1cccc2[nH]c(-c3ncsc3N3CCN(C(=O)Cn4ccc5cccnc54)[C@H](C)C3)nc12 [Example 22, 1-{(R)-2-Methyl-4-[4-(4-methyl-1H-benzoimidazol-2-yl)-thiazol-5-yl]-piperazin-1-yl}-2-pyrrolo[2,3-b]pyridin-1-yl-ethanone]
11 | 1 | 470 | Cc1cnn(CC(=O)N2CCN(c3sc(C(F)(F)F)nc3-c3nc4ccccc4[nH]3)C[C@H]2C)c1 [Example 191, 1-{(R)-4-[4-(1H-Benzoimidazol-2-yl)-2-trifluoromethyl-thiazol-5-yl]-2-methyl-piperazin-1-yl}-2-(4-methyl-pyrazol-1-yl)-ethanone]
12 | 3 | 1510 | Cn1c(=O)n(CC(=O)N2CCN(c3scnc3-c3nc4cc(Cl)c(Cl)cc4[nH]3)CC2)c2ccccc21 [Example 35, 1-(2-{4-[4-(5,6-Dichloro-1H-benzoimidazol-2-yl)-thiazol-5-yl]-piperazin-1-yl}-2-oxo-ethyl)-3-methyl-1,3-dihydro-benzoimidazol-2-one]
13 | 53 | 3420 | C[C@@H]1CN(c2sc(C(F)(F)F)nc2-c2nc3ccccc3n2C)CCN1C(=O)Cn1cccn1 [Example 184, 1-{(R)-2-Methyl-4-[4-(1-methyl-1H-benzoimidazol-2-yl)-2-trifluoromethyl-thiazol-5-yl]-piperazin-1-yl}-2-pyrazol-1-yl-ethanone]
14 | 5 | 1140 | C[C@@H]1CN(c2scnc2-c2nc3ccccc3[nH]2)CCN1C(=O)Cn1cnc2ccncc21 [Example 137, 1-{(R)-4-[4-(1H-Benzoimidazol-2-yl)-thiazol-5-yl]-2-methyl-piperazin-1-yl}-2-imidazo[4,5-c]pyridin-3-yl-ethanone]
15 | 2 | 90 | C[C@@H]1CN(c2sc(C(F)(F)F)nc2-c2nc3ccccc3[nH]2)CCN1C(=O)Cn1ncc2c1CCN(C)C2 [Example 216, 1-{(R)-4-[4-(1H-Benzoimidazol-2-yl)-2-trifluoromethyl-thiazol-5-yl]-2-methyl-piperazin-1-yl}-2-(5-methyl-4,5,6,7-tetrahydro-pyrazolo[4,3-c]pyridin-1-yl)-ethanone]
16 | 8 | 540 | Cc1nc(CN(C)C)nn1CC(=O)N1CCN(c2sc(C(F)(F)F)nc2-c2nc3ccccc3[nH]2)C[C@H]1C [Example 218, 1-{(R)-4-[4-(1H-Benzoimidazol-2-yl)-2-trifluoromethyl-thiazol-5-yl]-2-methyl-piperazin-1-yl}-2-(3-dimethylaminomethyl-5-methyl-[1,2,4]triazol-1-yl)-ethanone]

Row | SMILES | IC50 (human CXCR3A) [nM] | IC50 (CXCR3) [nM]
17 | COc1cc2nc(-c3nc(C(F)(F)F)sc3N3CCN(C(=O)Cn4cnc5cccnc54)[C@H](C)C3)[nH]c2cc1OC [Example 161, 1-{(R)-4-[4-(5,6-Dimethoxy-1H-benzoimidazol-2-yl)-2-trifluoromethyl-thiazol-5-yl]-2-methyl-piperazin-1-yl}-2-imidazo[4,5-b]pyridin-3-yl-ethanone] | 2 | 146
18 | C[C@@H]1CN(c2sc(C(F)(F)F)nc2-c2nc3ccccc3[nH]2)CCN1C(=O)Cn1cc(Cl)cn1 [Example 175, 1-{(R)-4-[4-(1H-Benzoimidazol-2-yl)-2-trifluoromethyl-thiazol-5-yl]-2-methyl-piperazin-1-yl}-2-(4-chloro-pyrazol-1-yl)-ethanone] | 0.1 | 227
19 | Cc1ccc(CC(=O)N2CCN(c3sc(C(F)(F)F)nc3-c3nc4ccccc4[nH]3)C[C@H]2C)cn1 [Example 199, 1-{(R)-4-[4-(1H-Benzoimidazol-2-yl)-2-trifluoromethyl-thiazol-5-yl]-2-methyl-piperazin-1-yl}-2-(6-methyl-pyridin-3-yl)-ethanone] | 0.4 | 658
20 | O=C(Cn1cnc2cccnc21)N1[C@@H]2CC[C@H]1CN(c1scnc1-c1nc3ccccc3[nH]1)C2 [Example 79, rac-1-{(1S*,5R*)-3-[4-(1H-Benzoimidazol-2-yl)-thiazol-5-yl]-3,8-diaza-bicyclo[3.2.1]oct-8-yl}-2-imidazo[4,5-b]pyridin-3-yl-ethanone] | 6 | 828

Source: patent US9266876B2 (Actelion Pharmaceuticals Ltd., priority 2012, dated 2016)
